The text below walks through data of patent US20170372030A9, “METHOD AND APPARATUS FOR COMPUTER MODELING OF THE INTERACTION BETWEEN AND AMONG CORTICAL AND SUBCORTICAL AREAS IN THE HUMAN BRAIN FOR THE PURPOSE OF PREDICTING THE EFFECT OF DRUGS IN PSYCHIATRIC AND COGNITIVE DISEASES” (priority 2005, published 2017).

In general, Km refers to the substrate concentration at which the rate is half of its maximum. A word on the Ki: it is the equilibrium dissociation constant of an inhibitor or competing ligand from its target.

The target in test [1] is alpha 1-adrenoreceptor. The settings on record: normal rat brain in vivo, cited from earlier work.
Test [2] concerns 5HT1b/d autoreceptor. The settings on record: cited from earlier work; for decrease of free 5HT: maximal stimulation of 5HT1b/d autoreceptor.
Test [3] addresses receptors of the 5HT1 class. The settings on record: read-out: high-affinity binding for serotonin; cited from earlier work.
Test [4] has as its system fast Na+ channel, persistent Na+ channel, L-type Ca++ channel. To be noted: saturating dose of 5HT (1 μM); cited from earlier work.
Test [5] has as its target 5HT-Transporter (Homo sapiens, UniProt P31645). The settings on record: read-out: Km of 5HT-Transporter; cited from earlier work.
Test [6] relates to α2 adrenergic receptors. The settings on record: full stimulation of α2 receptors; cited from earlier work.
In test [7] the target is T1, D2-R (Homo sapiens, UniProt P14416). To be noted: cited from earlier work.
For test [8], the target named is T1, D2-R. The test can be described thus: Drug and tracer binding affinity and on/off rates at the D2-R (Table 1). The settings on record: calculated as kon × Kd.
Test [9] addresses alpha 1-adrenoreceptor. To be noted: nonspiking regions, human cortical membranes; read-out: affinity; cited from earlier work.
Test [10] addresses α2-R. The settings on record: read-out: Ki for NE at the α2-R; cited from earlier work.
For test [11], the system named is Norepinephrine Transporter (NET). The settings on record: rat jejunum, cited from earlier work.
Test [12] addresses T2, 5HT2C receptor (Rattus norvegicus, UniProt P08909).
T2 construct: from tissue; host or cells: brain in vivo (microdialysis), value quoted from the literature
T2 sequence (P08909 33-460): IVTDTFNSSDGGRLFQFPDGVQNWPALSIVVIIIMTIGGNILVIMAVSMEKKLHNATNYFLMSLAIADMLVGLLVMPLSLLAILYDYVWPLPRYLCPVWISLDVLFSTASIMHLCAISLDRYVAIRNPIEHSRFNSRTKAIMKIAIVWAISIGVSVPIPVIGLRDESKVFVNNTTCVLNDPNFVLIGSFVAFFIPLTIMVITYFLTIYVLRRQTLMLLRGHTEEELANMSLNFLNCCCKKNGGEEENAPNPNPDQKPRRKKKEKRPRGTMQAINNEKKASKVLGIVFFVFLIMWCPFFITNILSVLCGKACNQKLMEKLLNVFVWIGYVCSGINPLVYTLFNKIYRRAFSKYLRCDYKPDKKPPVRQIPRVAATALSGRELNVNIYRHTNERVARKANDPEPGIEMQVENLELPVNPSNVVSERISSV
To be noted: microdialysis, maximal effect; cited from earlier work.

Test [13] deals with T3, NET (Rattus norvegicus, UniProt Q63380).
T3 construct: from tissue
To be noted: blocking the NET; cited from earlier work.

Read-outs that look alike come from different tables or passages of the source.

T1 sequence (P14416 whole entry): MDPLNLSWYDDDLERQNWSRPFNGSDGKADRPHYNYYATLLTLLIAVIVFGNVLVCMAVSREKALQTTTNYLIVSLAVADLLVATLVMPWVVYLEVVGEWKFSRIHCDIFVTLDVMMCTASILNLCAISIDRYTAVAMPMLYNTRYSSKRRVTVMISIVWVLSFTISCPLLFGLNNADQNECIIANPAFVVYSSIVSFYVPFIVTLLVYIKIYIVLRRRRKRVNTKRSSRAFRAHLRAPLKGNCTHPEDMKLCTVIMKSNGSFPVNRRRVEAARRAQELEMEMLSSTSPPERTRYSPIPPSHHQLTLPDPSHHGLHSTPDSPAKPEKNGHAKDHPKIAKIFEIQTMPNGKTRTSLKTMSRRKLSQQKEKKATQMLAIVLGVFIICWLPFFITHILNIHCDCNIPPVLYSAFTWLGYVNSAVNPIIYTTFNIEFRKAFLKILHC
T3 sequence (Q63380 1-617): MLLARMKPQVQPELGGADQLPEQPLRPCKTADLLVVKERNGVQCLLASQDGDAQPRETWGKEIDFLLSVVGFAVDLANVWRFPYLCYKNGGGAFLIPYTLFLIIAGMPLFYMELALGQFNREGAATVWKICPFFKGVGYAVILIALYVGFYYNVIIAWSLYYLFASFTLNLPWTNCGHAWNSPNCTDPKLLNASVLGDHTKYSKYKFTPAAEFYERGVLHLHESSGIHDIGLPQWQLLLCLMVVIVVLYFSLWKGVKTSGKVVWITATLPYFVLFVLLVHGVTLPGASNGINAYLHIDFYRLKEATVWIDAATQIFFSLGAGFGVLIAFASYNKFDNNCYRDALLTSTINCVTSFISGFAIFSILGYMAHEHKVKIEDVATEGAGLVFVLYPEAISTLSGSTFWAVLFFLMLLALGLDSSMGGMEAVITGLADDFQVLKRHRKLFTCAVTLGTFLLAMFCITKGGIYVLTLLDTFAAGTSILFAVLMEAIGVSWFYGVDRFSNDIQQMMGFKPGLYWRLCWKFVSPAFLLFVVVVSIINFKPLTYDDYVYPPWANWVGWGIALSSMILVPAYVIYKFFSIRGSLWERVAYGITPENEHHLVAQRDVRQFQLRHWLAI
5HT-Transporter, sequence (P31645 whole entry): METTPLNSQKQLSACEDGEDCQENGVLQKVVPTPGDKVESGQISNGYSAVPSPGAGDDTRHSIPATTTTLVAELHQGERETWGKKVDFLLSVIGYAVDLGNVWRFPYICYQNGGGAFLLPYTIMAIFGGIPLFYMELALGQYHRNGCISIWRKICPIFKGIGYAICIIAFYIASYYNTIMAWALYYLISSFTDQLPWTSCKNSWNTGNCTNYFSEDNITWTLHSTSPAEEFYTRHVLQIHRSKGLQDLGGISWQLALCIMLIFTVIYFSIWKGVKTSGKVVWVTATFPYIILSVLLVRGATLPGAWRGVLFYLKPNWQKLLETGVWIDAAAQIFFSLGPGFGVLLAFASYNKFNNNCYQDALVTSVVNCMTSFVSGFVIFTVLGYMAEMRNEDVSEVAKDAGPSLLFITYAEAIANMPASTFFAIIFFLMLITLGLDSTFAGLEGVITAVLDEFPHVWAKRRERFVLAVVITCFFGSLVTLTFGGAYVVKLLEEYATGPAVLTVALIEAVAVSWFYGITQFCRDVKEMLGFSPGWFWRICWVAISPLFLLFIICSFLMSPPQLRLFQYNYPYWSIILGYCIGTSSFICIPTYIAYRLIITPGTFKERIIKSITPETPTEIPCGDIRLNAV

As to `O=C1c2ccccc2CCC1CNCCc1ccc(O)c(I)c1` (stereo not drawn) [[^125I]HEAT, [^125I]iodo-2-[beta-(4-hydroxyphenyl)ethylaminomethyl]], the Kd was 3.6 nM in [1] (read-out: Kd (half-saturation constant), high-affinity site) and 668 nM in [1] (read-out: Kd, low-affinity site). As for `CN1CCC[C@@H]1Cc1c[nH]c2ccc(Nc3ncccc3[N+](=O)[O-])cc12` [CP135,807], the “decrease of free 5HT” value in test [2] is 45%. `NCCc1c[nH]c2ccc(O)cc12` [5HT, serotonin]: the Kd in test [3] was around 15 nM. The “decrease of maximum conductance of fast Na+, persistent Na+ and L-type Ca++ channel” value in test [4] was 20%. In addition, in test [5], the Km was 0.34 µM. Consider `Clc1cccc(Cl)c1N=C1NCCN1` [clonidine], for which the “reduction of 5HT firing (and subsequent PFC 5HT release)” value in test [6] is given as 45%.

Regarding `Cc1nc2n(c(=O)c1CCN1CCC(c3noc4cc(F)ccc34)CC1)CCCC2O` (stereo not drawn) [Paliperidone], the Kd in test [7] (at the D2-R, read-out: Kd) is 4.1 nM. `CCN1CCC[C@H]1CNC(=O)c1c(OC)ccc(I)c1O` [IBZM]: the “Koff” value in [8] was 0.0176 s⁻¹. Also, the Kd in test [7] (tracer, read-out: affinity of tracer for the D2-R) is 160 nM. With `COc1cc2nc(N3CCN(C(=O)c4ccco4)CC3)nc(N)c2cc1OC` [[^3H]prazosin, prazosin], in test [9], the Kd is 0.17 nM. Turning to `O=c1ccc2[nH]cc(C3=CCNCC3)c2[nH]1` [CP93,129], the “decrease of free 5HT” value in test [2] is on record as 45%. Regarding `NC[C@H](O)c1ccc(O)c(O)c1` [norepinephrine], in test [10], the Ki was 996 nM. Besides, the Michaelis constant (Km) was 111 µM in test [11] (read-out: Km, low-affinity component (uptake 2)) and 1.72 µM in test [11] (read-out: Michaelis constant (Km), high-affinity component (uptake 1)). For `C[C@H](N)Cn1ccc2cc(F)c(Cl)cc21` [Ro-60-0175], the “maximal reduction of free DA” value in test [12] is on record as 30%. For `COc1ccc(C(CN(C)C)C2(O)CCCCC2)cc1` (stereo not drawn) [venlafaxine], the “NE increase in cortex” value in [13] is reported as 498%. Consider `CC(C)NCC(O)COc1ccccc1-n1cccc1` (stereo not drawn) [isamoltane], for which the “increase of free 5HT” value in test [2] (maximal block of 5HT1b/d autoreceptor) is 50%.
